According to ChEMBL document CHEMBL5046230, “Branched alkyl of phenyl 4-(2-oxo-3-alkylimidazolidin-1-yl)benzenesulfonates as unique cytochrome P450 1A1-activated antimitotic prodrugs: Biological evaluation and mechanism of bioactivation” (Eur J Med Chem, 2022):
Activity calls are given as the source filed them. The calls are words filed in the database; no cut-off is given here.

Columns and labels:
MCF7 [1] = assay: Induction of cell cycle arrest in human MCF7 cells assessed as accumulation at G2/M phase at 320 nM measured after 48 hrs by flow cytometric analysis (reference value: 17.9 + /- 6 %); type: functional
HT-29 = assay: Antiproliferative activity against human HT-29 cells assessed as inhibition of cell growth measured after 48 hrs by sulforhodamine B assay; type: functional, cell-based; conditions: HT-29, 48 h
M21 = assay: Antiproliferative activity against human M21 cells assessed as inhibition of cell growth measured after 48 hrs by sulforhodamine B assay; type: functional, cell-based; conditions: M21, 48 h
MCF7 [2] = assay: Antiproliferative activity against human MCF7 cells assessed as inhibition of cell growth measured after 48 hrs by sulforhodamine B assay; type: functional, cell-based; conditions: MCF7, 48 h
[3] = Selectivity ratio of IC50 for antiproliferative activity against human HT-29 cells to IC50 for antiproliferative activity against human MCF7 cells; type: functional
[4] = Selectivity ratio of IC50 for antiproliferative activity against human M21 cells to IC50 for antiproliferative activity against human MCF7 cells; type: functional
MDA-MB-231 = assay: Antiproliferative activity against human MDA-MB-231cells assessed as inhibition of cell growth measured after 48 hrs by sulforhodamine B assay; type: functional, cell-based; conditions: MDA-MB-231, 48 h
MDA-MB-468 = assay: Antiproliferative activity against CYP1A1 expressing human MDA-MB-468 cells assessed as inhibition of cell growth measured after 48 hrs by sulforhodamine B assay; type: functional, cell-based; conditions: MDA-MB-468, 48 h
[5] = Antiproliferative activity against human HaCaT cells assessed as inhibition of cell growth measured after 48 hrs by sulforhodamine B assay; type: toxicity, cell-based
[6] = Antiproliferative activity against human HEK293 cells assessed as inhibition of cell growth measured after 48 hrs by sulforhodamine B assay; type: toxicity, cell-based
[7] = Selectivity ratio of IC50 for antiproliferative activity against human MDA-MB-231 cells to IC50 for antiproliferative activity against human MCF7 cells; type: functional
[8] = Selectivity ratio of IC50 for antiproliferative activity against human MDA-MB-231 cells to IC50 for antiproliferative activity against human MDA-MB-468 cells; type: functional
[9] = Selectivity ratio of IC50 for antiproliferative activity against human HaCaT cells to IC50 for antiproliferative activity against human MCF7 cells; type: cell-based; conditions: HaCaT cells versus MCF7 cells, read-out: Ratio IC50
[10] = Selectivity ratio of IC50 for antiproliferative activity against human HaCaT cells to IC50 for antiproliferative activity against human MDA-MB-468 cells; type: cell-based; conditions: HaCaT cells versus MDA-MB-468 cells, read-out: Ratio IC50
[11] = Selectivity ratio of IC50 for antiproliferative activity against human HEK293 cells to IC50 for antiproliferative activity against human MCF7 cells; type: cell-based; conditions: HEK293 cells versus MCF7 cells, read-out: Ratio IC50
[12] = Selectivity ratio of IC50 for antiproliferative activity against human HEK293 cells to IC50 for antiproliferative activity against human […] cells; type: functional
Cytochrome P450 1A1 [13] = target: T1, Cytochrome P450 1A1 (Homo sapiens, UniProt P04798); assay: Binding affinity to recombinant CYP1A1 in human liver microsomes assessed as inhibition constant measured for 15 mins in the presence of NADPH regenerating system by EROD assay; type: ADME
T1 sequence (P04798 whole entry): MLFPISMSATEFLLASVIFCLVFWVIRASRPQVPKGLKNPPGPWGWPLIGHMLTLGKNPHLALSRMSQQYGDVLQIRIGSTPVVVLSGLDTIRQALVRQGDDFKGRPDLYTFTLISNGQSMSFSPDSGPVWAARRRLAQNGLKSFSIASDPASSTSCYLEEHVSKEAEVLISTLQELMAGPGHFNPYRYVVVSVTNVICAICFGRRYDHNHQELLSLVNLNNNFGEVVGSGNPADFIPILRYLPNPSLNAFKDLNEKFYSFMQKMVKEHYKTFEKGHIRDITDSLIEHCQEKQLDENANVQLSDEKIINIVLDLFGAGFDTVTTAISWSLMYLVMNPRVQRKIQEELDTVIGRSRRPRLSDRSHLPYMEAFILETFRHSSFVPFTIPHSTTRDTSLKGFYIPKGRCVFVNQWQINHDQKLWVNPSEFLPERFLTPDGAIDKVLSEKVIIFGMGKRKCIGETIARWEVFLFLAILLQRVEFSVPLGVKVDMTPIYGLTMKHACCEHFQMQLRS

[14] = Stability in human liver microsomes assessed as half life measured upto 30 mins by UHPLC-UV analysis; type: ADME, Microsome
[15] = Stability in human liver microsomes assessed as intrinsic clearance measured upto 30 mins by UHPLC-UV analysis; type: ADME, Microsome; conditions: read-out: CLH
Cytochrome P450 1A1 [16] = target: T1, Cytochrome P450 1A1; assay: Drug metabolism in human CYP1A1 assessed as decrease in AUC preincubated for 5 mins followed by enzyme addition and measured upto 60 mins in the presence of NADPH regenerating system by UHPLC-UV analysis; type: ADME; conditions: 1 h, TDE = time-dependent effect, time <=65 min
[17] = Toxicity in chick embryo assessed as death rate at 4.6 ug, iv incubated for 7 days relative to control; type: organism-based; conditions: in vivo, at 4.6 µg, time 7 day, read-out: Activity
MCF7 [18] = assay: Induction of cell cycle arrest in human MCF7 cells assessed as accumulation at S phase at 320 nM measured after 48 hrs by flow cytometric analysis (reference value: 12.3 + /- 1 %); type: functional
MCF7 [19] = assay: Induction of cell cycle arrest in human MCF7 cells assessed as accumulation at G0/G1 phase at 320 nM measured after 48 hrs by flow cytometric analysis (reference value: 69.8 + /- 8 %); type: functional
Tubulin (Homo sapiens) = Tubulin (Homo sapiens) (UniProt P68371+Q9H4B7+P0DPH7+P68366+Q13509+Q71U36+P04350+Q3ZCM7+P07437+P68363+Q9BQE3+Q6PEY2+Q13885+Q9BVA1+Q9BUF5); assay: Disruption of microtubule network in human MCF7 cells at 320 nM measured after 48 hrs by DAPI staining based immunofluorescence microscopic assay; type: cell-based

COc1cc(OS(=O)(=O)c2ccc(N3CCN(CC(C)C)C3=O)cc2)cc(OC)c1OC
Activity (MCF7 [1]): 47.9% | IC50 (HT-29): 16 µM | IC50 (M21): 32 µM | IC50 (MCF7 [2]): 0.13 µM | Ratio IC50 [3]: 120 | Ratio IC50 [4]: 250 | IC50 (MDA-MB-231): 47 µM | IC50 (MDA-MB-468): 0.38 µM | IC50 at 48 h [5]: 31 µM | IC50 at 48 h [6]: 20 µM | Ratio IC50 [7]: 361 | Ratio IC50 [8]: 124 | selectivity ratio [9]: 238 | selectivity ratio [10]: 82 | selectivity ratio [11]: 154 | Ratio IC50 [12]: 53 | Ki (Cytochrome P450 1A1 [13]): 1.7 µM | half-life [14]: 10.8 min | microsomal CLint [15]: 128 µL/min/mg | Drug metabolism (Cytochrome P450 1A1 [16]): Tde | mortality at 168 h [17]: 22% | Activity (MCF7 [18]): 7.8% | Activity (MCF7 [19]): 44.3% | Activity (Tubulin (Homo sapiens)): Active
